Test results reported in patent US6800630B2, “Pyrimidine derivatives having antitumor effect” (Shionogi & Co., Ltd., priority 2000, dated 2004).
Converted amounts (≈) assume the structure as drawn.

What was measured:
Assay type in all cases: cell-based
[1] = test system: signal derived from Ras oncogene products (DT-R cells, pRRE3-luc transfected v-ki-ras-transformed NIH373 cells); assay: Inhibitory effect against cellular signaling derived from Ras oncogene products: RRE-luciferase reporter, Minimal Active Concentration (MAC) at which DT-C and DT-R activities dissociate; conditions: minimal concentration at which luciferase activities of DT-C and DT-R cells dissociated
From the text: (§1) Test Example 1 Inhibitory effect against cellular signaling derived from Ras oncogene products
(§2) Based on the reporter plasmid (pGV-P (Toyo Ink, Japan)), in which luciferase gene was ligated to SV40-derived minimal promoter, we constructed a plasmid designated pRRE3-luc by inserting 3 copies of chemically synthesized oligonucleotides (Sequence: CAGGATATGACTCT, derived from mouse NVL-3 (M. A. Reddy et al.(1992)Mol. Endocrinol., 6, 1051)) into upstream of the promoter. v-ki-ras-transformed NIH373 cells (DT cells, provided by Dr. Makoto Noda (Kyoto Univ., School of medicine)) were transfected with this plasmid by liposome-mediated transfection and transfected cell lines stably incorporated and maintained each plasmid were obtained. We named pGV-P and pRRE3-transfected cell line as DT-C and DT-R, respectively and used in the assay described below.
(§3) i) All the cell lines were cultured in Dulbecco's Modified Essential Medium (DMEM: 10% Fetal Calf Serum(FCS: Hyclone, USA)) including […] kanamycin (Meiji Seika, Japan) in humidified incubator under condition of 5% CO2 at 37° C.
(§4) ii) DT-C and DT-R cells were seeded at 2500 cells/well into flat-bottom 96 well multiplate (Sumitomo bakelite) and incubated for 24 hours.
(§5) iii) Test compounds were prepared as 1 mg/ml DMSO solution.
(§6) iv) The solution of test compounds were added to the culture. Tested compounds are used at the concentration from […] to 0.51 ng/ml with 3-fold dilution.
(§7) v) After 24 hours, the culture supernatant was completely aspirated and 20 μl of cell-lysing solution (PGC-50 (Toyo Ink, Japan)) was added before cells were dried up. In order to lyse the cells completely, multiwell plates were left at room temperature for 10 to 30 min. The plates were wrapped up and stored at −20° C. till the day of measurement.
(§8) i) Melt the samples by putting 96 well multiplate at 37° C. and add 90 μl/well 25 mM Tris (pH 7.5).
(§9) ii) Transfer 50 μl of the sample (110 μl) to the 96 well microplate (Microlite 1 (Dynatech)) for measurement.
(§10) iii) Measure the samples by the luminometer, LUMINOUS CT9000D (Dia-Yatron, Japan). We used Pickagene luminescence kit PGL2000 or LT2.0 (Toyo Ink, Japan) as enzyme substrates for luminescence measurement (50 μl/well).
(§11) i) The luciferase activity of DT-C cells and DT-R cells were plotted in the graph where the relative activity and the compound concentration were expressed as Y-axis and X-axis, respectively. We judged by the degree of dissociation between the activities of DT-C cells and DT-R cells as an index.
ii) Concretely, efficacy of the compound was expressed by two values described below.
a) Among the points of concentration tested, the minimal concentration (Minimal Active Concentration: MAC), at which the activities of DT-C cells and DT-R cells dissociated, was shown as an index of efficacy of the compound.

[2] = test system: DT-C cells (pGV-P transfected v-ki-ras-transformed NIH373 cells); assay: Luciferase activity of DT-C control cells (IC50-C), index of non-specific transcription-inhibitory effect or cytotoxicity; conditions: tested concentration nearest to 50% inhibition in DT-C cells
From the text: as §1, §2, §3, §4, §5, §6, §7, §8, §9, §10, §11
b) Among the points of concentration tested, the concentration which is the nearest to 50% inhibition concentration at DT-C cells (IC50-C), was shown as an index of non-specific transcription-inhibitory effect or of cytotoxicity. In case of positive compounds, 50% inhibition concentration in DT-C cells which was higher than the active concentration was expressed as IC50-C.

[3] = test system: human squamous lung cancer Ma44; assay: In vitro cell growth inhibition test, MTT assay; conditions: MTT assay 4 days after compound addition
From the text: (§12) Test Example 2 In vitro cell growth inhibition test Cells and MTT assay
(§13) Human squamous lung cancer […], human squamous lung cancer Ma44, human lung adenocarcinoma A549, human colon cancer HT29 and human pancreas cancer PANC-1 were used.

human colon cancer HT29 = assay: In vitro cell growth inhibition test, MTT assay; conditions: MTT assay 4 days after compound addition
From the text: as §12, §13

[4] = test system: human lung adenocarcinoma A549; assay: In vitro cell growth inhibition test, MTT assay; conditions: MTT assay 4 days after compound addition
From the text: as §12, §13

[5] = test system: human pancreas cancer PANC-1; assay: In vitro cell growth inhibition test, MTT assay; conditions: MTT assay 4 days after compound addition
From the text: as §12, §13

[6] = test system: human squamous lung cancer RERF-RC-AI; assay: In vitro cell growth inhibition test, MTT assay; conditions: MTT assay 4 days after compound addition
From the text: as §12, §13

H460 = assay: In vitro cell growth inhibition test, MTT assay; conditions: MTT assay 4 days after compound addition
From the text: [The source words this procedure for another cell line and reports this cell line under the same test.] as §12, §13

SMILES | MAC (Minimal Active Concentration) [1] [µg/mL] | IC50 (IC50-C) [2] [µg/mL] | IC50 Ma44 [3] [µg/mL] | IC50 HT-29 (human colon cancer HT29) [µg/mL] | IC50 A549 [4] [µg/mL] | IC50 PANC-1 [5] [µg/mL] | IC50 RERF-LC-AI [6] [µg/mL] | IC50 H460 (H460) [µg/mL]
CCNC(=Nc1nc(C)ncc1C(C)Sc1nnc(-c2ccc([N+](=O)[O-])cc2)o1)SC (racemic) [Compound A-22] | 1.11 | >10 | 0.042 (≈ 0.0914 µM) | – | – | – | – | –
CCNC(=Nc1nc(C)ncc1C(C)Sc1nnc(-c2ccc([N+](=O)[O-])cc2)o1)NCC (racemic) [Compound A-23] | 3.33 | >10 | – | – | – | – | – | –
CNC(=Nc1nc(C)ncc1CSc1nnc(-c2ccc([N+](=O)[O-])cc2)o1)SC [Compound A-1] | 1.11 | >10 | 0.12 (≈ 0.278 µM) | 0.045 (≈ 0.104 µM) | 0.0009 (≈ 0.00209 µM) | 0.046 (≈ 0.107 µM) | – | –
CCNC(=Nc1nc(C)ncc1CSc1nnc(-c2ccc([N+](=O)[O-])cc2)o1)SC [Compound A-3] | 0.37 | >10 | 0.056 (≈ 0.126 µM) | 0.052 (≈ 0.117 µM) | 0.063 (≈ 0.141 µM) | 0.051 (≈ 0.114 µM) | 0.046 (≈ 0.103 µM) | –
CCCNC(=Nc1nc(C)ncc1CSc1nnc(-c2ccc([N+](=O)[O-])cc2)o1)SC [Compound A-4] | 0.37 | >10 | 0.051 (≈ 0.111 µM) | 0.023 (≈ 0.05 µM) | 0.038 (≈ 0.0827 µM) | 0.026 (≈ 0.0566 µM) | 0.03 (≈ 0.0653 µM) | –
CCSC(=Nc1nc(C)ncc1CSc1nnc(-c2ccc([N+](=O)[O-])cc2)o1)NC [Compound A-5] | 0.123 | – | 0.0446 (≈ 0.1 µM) | 0.0484 (≈ 0.109 µM) | 0.07 (≈ 0.157 µM) | 0.0665 (≈ 0.149 µM) | 0.033 (≈ 0.0741 µM) | 0.089 (≈ 0.2 µM)
CCNC(=Nc1nc(C)ncc1CSc1nnc(-c2ccc([N+](=O)[O-])cc2)o1)SCC [Compound A-6] | 0.0412 | – | 0.0182 (≈ 0.0396 µM) | 0.0244 (≈ 0.0531 µM) | 0.0256 (≈ 0.0557 µM) | 0.0148 (≈ 0.0322 µM) | 0.015 (≈ 0.0326 µM) | 0.0256 (≈ 0.0557 µM)
CCCSC(=Nc1nc(C)ncc1CSc1nnc(-c2ccc([N+](=O)[O-])cc2)o1)NC [Compound A-7] | 0.123 | 3.33 (≈ 7.25 µM) | 0.0016 (≈ 0.00348 µM) | 0.0036 (≈ 0.00783 µM) | 0.0021 (≈ 0.00457 µM) | 0.0006 (≈ 0.00131 µM) | 0.0013 (≈ 0.00283 µM) | 0.0038 (≈ 0.00827 µM)
CCCSC(=Nc1nc(C)ncc1CSc1nnc(-c2ccc([N+](=O)[O-])cc2)o1)NCC [Compound A-8] | 0.123 | >10 | 0.0341 (≈ 0.072 µM) | 0.0414 (≈ 0.0874 µM) | 0.0093 (≈ 0.0196 µM) | 0.0371 (≈ 0.0783 µM) | 0.0278 (≈ 0.0587 µM) | 0.0068 (≈ 0.0144 µM)
CNC(=Nc1nc(C)ncc1CSc1nnc(-c2ccc(N)cc2)o1)SC [Compound A-10] | 1.11 | >10 | 0.08 (≈ 0.199 µM) | – | – | – | – | –
CCNC(=Nc1nc(C)ncc1CSc1nnc(-c2ccc(N)cc2)o1)SC [Compound A-11] | 0.0412 | >10 | 0.077 (≈ 0.185 µM) | 0.0067 (≈ 0.0161 µM) | 0.014 (≈ 0.0337 µM) | 0.0064 (≈ 0.0154 µM) | – | –
CCCNC(=Nc1nc(C)ncc1CSc1nnc(-c2ccc(N)cc2)o1)SC [Compound A-12] | 0.0137 | >10 | 0.0095 (≈ 0.0221 µM) | 0.0063 (≈ 0.0147 µM) | 0.008 (≈ 0.0186 µM) | 0.0091 (≈ 0.0212 µM) | 0.0057 (≈ 0.0133 µM) | 0.0115 (≈ 0.0268 µM)
CCSC(=Nc1nc(C)ncc1CSc1nnc(-c2ccc(N)cc2)o1)NC [Compound A-13] | 0.0137 | – | 0.03 (≈ 0.0722 µM) | 0.0089 (≈ 0.0214 µM) | 0.015 (≈ 0.0361 µM) | 0.0077 (≈ 0.0185 µM) | – | –
CCNC(=Nc1nc(C)ncc1CSc1nnc(-c2ccc(N)cc2)o1)SCC [Compound A-14] | 0.0412 | >10 | 0.032 (≈ 0.0745 µM) | 0.011 (≈ 0.0256 µM) | 0.012 (≈ 0.0279 µM) | 0.0098 (≈ 0.0228 µM) | 0.012 (≈ 0.0279 µM) | –
CCCSC(=Nc1nc(C)ncc1CSc1nnc(-c2ccc(N)cc2)o1)NC [Compound A-15] | 0.00152 | >10 | 0.0127 (≈ 0.0296 µM) | 0.0103 (≈ 0.024 µM) | 0.0111 (≈ 0.0258 µM) | 0.0124 (≈ 0.0289 µM) | 0.0065 (≈ 0.0151 µM) | 0.0153 (≈ 0.0356 µM)
CCNC(=Nc1nc(C)ncc1CSc1nnc(-c2ccc([N+](=O)[O-])cc2)o1)OC [Compound A-32] | 0.123 | >10 | 0.042 (≈ 0.0978 µM) | 0.031 (≈ 0.0722 µM) | 0.064 (≈ 0.149 µM) | 0.034 (≈ 0.0792 µM) | 0.031 (≈ 0.0722 µM) | –
CCNC(=Nc1nc(C)ncc1CSc1nnc(-c2ccc([N+](=O)[O-])cc2)o1)OCC [Compound A-33] | 0.0412 | >10 | 0.0091 (≈ 0.0205 µM) | 0.0066 (≈ 0.0149 µM) | 0.023 (≈ 0.0519 µM) | 0.0086 (≈ 0.0194 µM) | 0.0093 (≈ 0.021 µM) | –
CNC(=Nc1nc(C)ncc1CSc1nnc(-c2ccc([N+](=O)[O-])cc2)o1)OC(C)C [Compound A-34] | 0.0137 | >10 | 0.0091 (≈ 0.0205 µM) | 0.0046 (≈ 0.0104 µM) | 0.021 (≈ 0.0474 µM) | 0.0075 (≈ 0.0169 µM) | 0.013 (≈ 0.0293 µM) | –
CCNC(=Nc1nc(C)ncc1CSc1nnc(-c2ccc([N+](=O)[O-])cc2)o1)OC(C)C [Compound A-35] | 0.0412 | >10 | 0.0069 (≈ 0.0151 µM) | 0.0033 (≈ 0.00721 µM) | 0.011 (≈ 0.024 µM) | 0.0054 (≈ 0.0118 µM) | 0.0067 (≈ 0.0146 µM) | –
CNC(=Nc1nc(C)ncc1CSc1nnc(-c2ccc([N+](=O)[O-])cc2)o1)NCC(F)(F)F [Compound C-1, reference compound] | 0.0412 | – | 0.011 (≈ 0.0228 µM) | 0.0066 (≈ 0.0137 µM) | 0.016 (≈ 0.0332 µM) | 0.0064 (≈ 0.0133 µM) | – | –
C#CCNC(=Nc1nc(C)ncc1CSc1nnc(-c2ccc([N+](=O)[O-])cc2)o1)NC [Compound C-2, reference compound] | 0.0137 | >10 | 0.0034 (≈ 0.00775 µM) | 0.002 (≈ 0.00456 µM) | 0.0044 (≈ 0.01 µM) | 0.002 (≈ 0.00456 µM) | – | –
